{"source": "patent US12653860B2", "about": "“Compositions and methods for editing beta-globin for treatment of hemaglobinopathies” (Vertex Pharmaceuticals Incorporated, priority 2019, dated 2026)", "molecules": {"B1": {"name": "R02 gRNA: sgRNA targeting the HBB locus, SEQ ID NO: 17 (spacer SEQ ID NO: 16) (nucleic acid)", "guide": "mC*mU*mU*rGrCrCrCrCrArCrArGrGrGrCrArGrUrArArGrUrUrUrUrArGrArGrCrUrArGrArArArUrArGrCrArArGrUrUrArArArArUrArArGrGrCrUrArGrUrCrCrGrUrUrArUrCrArArCrUrUrGrArArArArArGrUrGrGrCrArCrCrGrArGrUrCrGrGrUrGrCmU*mU*mU*rU"}}, "key": {"[1]": {"system": "HBB gene locus in CD34-expressing LT-HSPCs", "assay": "HDR insertion of GFP donor at HBB gene locus with DNA-PK inhibitor (percentage of cells expressing GFP)", "format": "cell-based, human", "conditions": "for level of HDR repair (cells expressing GFP): day 2 post-editing, FIG. 37A", "description": "The effect of DNA-PK inhibition using Compound 296 was compared to the effect of 53BP1 inhibition using i53 for increased HDR repair of the HBB gene locus with donor DNA encoding GFP.\nThe efficiency of HDR for repair of the HBB gene with donor encoding GFP was determined by measuring the percentage of cells expressing GFP following electroporation.\n(§1) Edited cells were evaluated for GFP fluorescence on day 2 post-editing using flow cytometry, and viability was determined via staining with Tryphan Blue."}, "[2]": {"system": "CD34-expressing LT-HSPCs", "assay": "Viability of edited LT-HSPCs by Tryphan Blue staining", "format": "cell-based, human", "description": "as §1\n(§2) Edited cells were evaluated for viability as described above, and for incorporation of gene-edits at 2 days post-electroporation. […] The frequency of INDELs induced at the R02 cut site was also evaluated by NGS analysis."}, "[3]": {"system": "HBB gene locus in CD34-expressing LT-HSPCs", "assay": "HDR efficiency at HBB gene with R02 RNP+AAV.307 and DNA-PK inhibitors, NGS", "format": "cell-based, human", "description": "(§3) Editing was performed as described above. However, the cells were electroporated with AAV.307 administered 1 hour prior to electroporation at a dose of 10,000 MOI. The cells were electroporated with compound 296 at a concentration ranging from 0.005 μM to 10 μM, with compound 984 at a concentration ranging from 0.005 μM to […], or with 1 μg i53 mRNA. Negative control cells were electroporated with RNP+AAV only or RNP only.\nas §2"}, "[4]": {"system": "HBB gene locus in CD34-expressing LT-HSPCs", "assay": "INDEL frequency and species at R02 cut site with DNA-PK inhibitors, NGS", "format": "cell-based, human", "description": "as §3, §2\nThe INDELs species identified for cells edited in Experiment 2 were further evaluated to determine frequency of repair by NHEJ or MMEJ repair pathways. An INDEL of 1 nt was considered due to NHEJ repair; a deletion of −9 nt was considered due to MMEJ repair based on the microhomology present on either side of the R02 cut site. Based on percentage of total reads corresponding to these INDEL species, the ratio of gene edits due to NHEJ and MMEJ repair was evaluated."}, "[5]": {"molecular_target": "DNA-PK catalytic subunit (DNA-PKcs) (Homo sapiens, UniProt P78527)", "conditions": "reported, U.S. Pat. No. 9,592,232; cited from earlier work"}, "[6]": {"system": "BFP gene encoded in the AAVS1 locus of HEK293 T cells", "assay": "BFP to GFP reporter assay of HDR repair (flow cytometry)", "format": "cell-based", "conditions": "different concentrations or doses; FIG. 1B, 1C", "description": "An in vitro assay was conducted to determine the ability of various inhibitors and enhancers to improve the efficiency of HDR repair in HEK293 T cells. Specifically, a fluorescent reporter-based screening approach was developed to identify molecules that enhance gene-editing by HDR. A reporter system was generated in HEK293 T cells comprising a genomic AAVS1 locus that encoded either a blue fluorescent protein (BFP) or a green fluorescent protein (GFP) within the AAVS1 locus. A gene encoding BFP can be converted to a gene encoding GFP by substitution of cytosine at position 199 to uridine (e.g., a C to U transition at position 199). By introducing a DSB within the BFP gene using a CRISPR/Cas9 gene-editing system, a homology donor DNA encoding the nucleotide substitution can be used to edit the BFP gene to a GFP gene by HDR repair. Thus, a gene edit that induces a C to U transition at position 199 results in a change in cellular fluorescence. A change in the fluorescence of the cell measured by flow cytometry can be used to quantify efficiency of HDR repair. Additionally, the reverse gene edit can be performed for an AAVS1 locus encoding a GFP gene, wherein a GFP can be converted to BFP by substitution of uridine at position 199 to cytosine.\nTo create the reporter system, an AAV-based homology donor DNA encoding either BFP or GFP was created. The AAV-BFP or AAV-GFP donor was flanked by homology arms that were 1000 base pairs in length and expression of BFP or GFP was driven by the MND promoter (e.g., a synthetic promoter that contains the U3 region of a modified Moloney murine leukemia virus long term terminal repeat with myeloproliferative sarcoma virus enhancer and deleted negative control region, SEQ ID NO: 58). The viral DNA was packaged into capsids of adeno-associated virus serotype 6 (AAV6) vector. Either the BFP or GFP donor was introduced using the AAV6 vector into the AAVS1 locus in HEK293 T cells by homologous recombination using CRISPR-Cas9 as follows: purified Cas9 protein was complexed with two different single gRNAs (sgRNAs) targeting the AAVS1 locus at SEQ ID NO: 3 (spacer sequence identified by SEQ ID NO: 4; gRNA obtained from Maxcyte) or SEQ ID NO: 5 (spacer sequence identified by SEQ ID NO: 6; gRNA obtained from Thermo Fisher). Cas9 protein used in the Exemplary section provided herein refers to Cas9 polypeptide derived from S pyogenes (SpCas9), unless indicated otherwise.\nThe Cas9-sgRNA complex was electroporated into the HEK293 T cells using the Lonza Nucleofector program CM-130. Approximately, 2 hours after electroporation, the cells were infected with various viral doses of AAV6 encoding a BFP (SEQ ID NO: 44) or GFP homology donor (SEQ ID NO: 47). One week later, cells were analyzed by flow cytometry to verify integration and expression of BFP or GFP in the AAVS1 locus. HEK293 T cells expressing BFP or GFP were sorted into single cells in 96-well plates. After −2 weeks of growth, DNA extracted from individual cells was analyzed for precise integration of the respective BFP or GFP gene into the AAVS1 locus by long-range PCR. This PCR analysis allowed for determination of whether the BFP/GFP gene was integrated in one or both alleles of the AAVS1 locus.\nTo introduce a gene edit that converts BFP to GFP, cells were electroporated with ribonucleoprotein (RNP) comprised of Cas9 and sgRNA that targets the BFP gene encoded in the AAVS1 locus. The sgRNA targeted a sequence in the BFP gene identified by SEQ ID NO: 7 (sgRNA spacer sequence identified by SEQ ID NO: 8). The sgRNA were prepared using a standard sgRNA cassette specific to SpCas9, as indicated by SEQ ID NO: 2 (wherein a, c, g, u represent 2′ O-methyl phosphorothioate nucleotides; s represents phosphorothioate nucleotides; and A, C, G, U, N represent canonical RNA nucleotides). The gRNAs used in the Exemplary section provided herein were sgRNAs prepared with the SpCas9 sgRNA cassette unless indicated otherwise. […]"}, "[7]": {"system": "HBB locus in CD34-expressing LT-HSPCs", "assay": "HDR insertion of AAV GFP donor at HBB locus (GFP fluorescence)", "format": "cell-based, human", "conditions": "i53 mRNA 0.5, 1, 2 g (FIG. 6A) or 0.3 g, 1 g (FIG. 6B); CYREN1 or CYREN2 mRNA; any dose of XL413 (data not shown)", "description": "Frozen CD34-expressing LT-HSPCs derived from plerixafor (i.e., Mozibil®)+GCSF-dual mobilized peripheral blood obtained from healthy human donors were purchased from a commercial vendor. LT-HSPCs were maintained in culture media comprised of the reagents shown in Table 4 and were incubated at 37° C., 5% carbon dioxide, 4% oxygen. […] 2×10^5 cells were edited with 3 g Cas9 and 3 g gRNA. The target gene sequence (including target sequence with PAM), R02 spacer sequence, and R02 sgRNA sequence are identified in Table 3.\nThe cells were transfected with a dsDNA homology donor encoding GFP under a SFFV promoter (SEQ ID NO: 60) that was delivered by AAV (SEQ ID NO: 56). […] The HDR efficiency was determined by measuring the level of GFP fluorescence in the cells following electroporation. To determine the effect of 53BP1 inhibition on HDR efficiency, the 53BP1 inhibitor i53 was introduced as an mRNA-encoded protein to the cells during electroporation with Cas9/gRNA RNP and AAV DNA that serves as a donor for homology directed repair.\nThe effect of 53BP1 inhibition on HDR efficiency was compared to other mRNA-encoded proteins that inhibit the NHEJ pathway. These included the proteins CYREN1 and CYREN2 that inhibit Ku70/80, a heterodimer that binds DNA blunt ends to prevent processing of 3′ single-stranded DNA tails necessary for HDR repair. Cells were electroporated with RNP, an AAV-GFP homology donor and mRNA encoding either i53 (mRNA ORF shown in SEQ ID NO: 69), CYREN1, or CYREN2.\nThe effect of treatment with i53 and Nu7441 was compared for improving efficiency of HDR repair of the HBB locus. Cells were treated with different doses of Nu7441 or with mRNA encoding i53 (ORF shown by SEQ ID NO: 69)."}, "[8]": {"system": "genomic DNA", "assay": "GUIDE-Seq screen of candidate off-target sites", "format": "cell-based", "excerpt": "The second approach was to screen candidate off-target sites using GUIDE-Seq (see, e.g., Tsai et al (2015) NAT BIOTECHNOL. 33:187). Based on this approach, 36 sites in the genomic DNA were identified as undergoing off-target CRISPR/Cas9 cleavage using the R02 gRNA."}}, "note": "Strand notation (5' to 3'): a small letter for the sugar, then the base; units joined by * are phosphorothioate-linked, units joined directly phosphodiester-linked; [ ] holds rarer units or linkages, { } end groups; capitals alone tell only the bases. m = 2'-O-methyl; r = 2'-OH (RNA)", "data": [{"molecule": "CNC(=O)c1ccnc2c([C@H](C)CNc3cc(-c4cnc(C)nc4)ncn3)cccc12", "note": "[Compound 296]", "values": [{"measurement": "level of HDR repair vs i53 mRNA", "setting": "[1]; 1.1 μM, 3.3 μM, or 10 μM, FIG. 37B", "result": "comparable to cells edited with i53 mRNA"}, {"measurement": "level of HDR repair (cells expressing GFP)", "setting": "[1]; 1.1 μM", "result": 53.5, "unit": "%"}, {"measurement": "level of HDR repair (cells expressing GFP)", "setting": "[1]; 3.3 μM", "result": 56.5, "unit": "%"}, {"measurement": "level of HDR repair (cells expressing GFP)", "setting": "[1]; 10 μM", "result": 55.9, "unit": "%"}, {"measurement": "viability of edited cells", "setting": "[2]; AAV.307, each concentration used, Experiment 2, FIG. 38C", "result": "> 80", "unit": "%"}, {"measurement": "viability of edited cells", "setting": "[2]; GFP donor, each concentration evaluated (0.014 μM to 10 μM), FIG. 37A", "result": "> 80", "unit": "%"}, {"measurement": "HDR efficiency", "setting": "[3]; 3.3 μM, R02 RNP+AAV.307", "result": 80, "unit": "%"}, {"measurement": "HDR efficiency, fold higher than R02 RNP+AAV only", "setting": "[3]; 0.37-10 μM", "result": "at least 1.6 fold"}, {"measurement": "level of HDR repair", "setting": "[3]; 0.37-10 M, R02 RNP+AAV.307, FIGS. 38A-38B", "result": "≥ 70", "unit": "%"}, {"measurement": "frequency of INDELs, fold reduced compared to R02 RNP only", "setting": "[4]; 0.37-10 μM", "result": "at least 4.6 fold"}, {"measurement": "INDEL species due to MMEJ repair (−9 nt deletion)", "setting": "[4]; Experiment 2, FIG. 38D", "result": "only a modest reduction"}, {"measurement": "fold decrease in INDELs due to NHEJ repair (INDEL of 1 nt)", "setting": "[4]; Experiment 2, FIG. 38D", "result": "≤ 30", "unit": "fold"}, {"measurement": "affinity and selectivity for DNA-PK", "setting": "[5]", "result": "high affinity and selectivity"}]}, {"molecule": "[2H]c1nc(C)nc([2H])c1-c1cc(NC[C@@H](C)c2cccc3c(C(=O)NC)ccnc23)ncn1", "note": "[Compound 984]", "values": [{"measurement": "viability following editing", "setting": "[2]; particularly at minimal effective concentrations", "result": "good viability"}, {"measurement": "HDR efficiency", "setting": "[3]; 3.3 μM or 10 μM, R02 RNP+AAV.307, FIGS. 39A-39B", "result": "> 80", "unit": "%"}, {"measurement": "level of HDR repair", "setting": "[3]; 0.37-10 μM, FIGS. 39A-39B", "result": "high"}, {"measurement": "frequency of INDELs, fold reduced compared to R02 RNP only", "setting": "[4]; 3.3 μM or 10 μM, FIGS. 39A-39B", "result": "approximately 8 fold"}, {"measurement": "affinity and selectivity for DNA-PK", "setting": "[5]", "result": "high affinity and selectivity"}]}, {"molecule": "CCCCCCNC(=O)Nc1ccc(S(=O)(=O)Nc2ccc(CCNC[C@H](O)COc3ccc(O)cc3)cc2)cc1", "note": "[L755,507]", "values": [{"measurement": "HDR efficiency (improvement)", "setting": "[6]", "result": "no improvement in HDR efficiency"}]}, {"molecule": "C[C@]1(c2nc3c(C(N)=O)cccc3[nH]2)CCCN1", "note": "[Veliparib]", "values": [{"measurement": "HDR efficiency (improvement)", "setting": "[6]", "result": "no improvement in HDR efficiency"}]}, {"molecule": "Cl.O=c1[nH]c([C@@H]2CCCN2)nc2c1oc1ccc(Cl)cc12", "note": "[XL413]", "values": [{"measurement": "HDR efficiency vs RNP+AAV-only", "setting": "[7]", "result": "no improvement in HDR efficiency"}]}, {"molecule": "B1", "values": [{"measurement": "number of genomic sites identified as undergoing off-target CRISPR/Cas9 cleavage", "setting": "[8]", "result": 36}]}]}
